According to US20070185149A1, “Novel amido-substituted hydroxy-6-phenylphenanthridines and their use as pde4 inhibtors” (ALTANA PHARMA AG, priority 2004, published 2007):

molecular target: T1, PDE4B2 (Homo sapiens, UniProt Q07343); assay: Inhibition of PDE4 activity: PDE4B2 [3H]cAMP SPA enzyme assay; format: biochemical; details: recombinant PDE4B2 (SF21 cell supernatant), modified SPA test, 0.5 μM cAMP, 15 min at 37° C.; read-out: Inhibition of the PDE4 activity, −log IC50 (converted)
T1 construct: made in house; host or cells: SF21 insect cells (baculovirus; virus prepared in SF9 cells)
T1 sequence (Q07343 1-564 isoform Q07343-2): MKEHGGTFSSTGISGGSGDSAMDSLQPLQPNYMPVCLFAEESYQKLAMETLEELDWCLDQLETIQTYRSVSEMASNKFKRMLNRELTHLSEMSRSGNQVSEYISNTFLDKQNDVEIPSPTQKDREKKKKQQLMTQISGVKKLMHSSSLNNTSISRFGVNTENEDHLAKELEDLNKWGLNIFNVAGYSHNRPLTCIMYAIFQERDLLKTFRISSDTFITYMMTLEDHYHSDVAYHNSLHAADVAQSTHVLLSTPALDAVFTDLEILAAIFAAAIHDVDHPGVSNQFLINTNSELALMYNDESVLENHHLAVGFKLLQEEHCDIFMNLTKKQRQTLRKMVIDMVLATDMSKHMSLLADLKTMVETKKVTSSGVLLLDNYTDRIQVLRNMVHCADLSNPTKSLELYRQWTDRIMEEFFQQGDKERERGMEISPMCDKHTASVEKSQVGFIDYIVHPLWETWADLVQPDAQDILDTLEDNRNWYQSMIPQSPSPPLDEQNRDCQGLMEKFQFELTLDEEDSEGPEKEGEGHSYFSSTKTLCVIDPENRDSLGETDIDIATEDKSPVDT
Description: The PDE4B2 (GB no. M97515) was a gift of Prof. M. Conti (Stanford University, USA). It was amplified from the original plasmid (pCMV5) via PCR with primers Rb9 (5′-[…]-3′) and Rb10 (5′-[…]-3′) and cloned into the pCR-Bac vector (Invitrogen, Groningen, NL).
The recombinant baculovirus was prepared by means of homologous recombination in SF9 insect cells.
The expression plasmid was cotransfected with Bac-N-Blue (Invitrogen, Groningen, NL) or Baculo-Gold DNA (Pharmingen, Hamburg) using a standard protocol (Pharmingen, Hamburg). Wt virus-free recombinant virus supernatant was selected using plaque assay methods. After that, high-titre virus supernatant was prepared by amplifying 3 times. PDE was expressed in SF21 cells by infecting 2×10^6 cells/ml with an MOI (multiplicity of infection) between 1 and 10 in serum-free SF900 medium (Life Technologies, Paisley, UK). The cells were cultured at 28° C. for 48-72 hours, after which they were pelleted for 5-10 min at 1000 g and 4° C.
The SF21 insect cells were resuspended, at a concentration of approx. 10^7 cells/ml, in ice-cold (4° C.) homogenization buffer (20 mM Tris, pH 8.2, containing the following additions: 140 mM NaCl, 3.8 mM KCl, 1 mM EGTA, 1 mM MgCl2, 10 mM β-mercaptoethanol, 2 mM benzamidine, 0.4 mM Pefablock, 10 μM leupeptin, 10 μM pepstatin A, 5 μM trypsin inhibitor) and disrupted by ultrasonication. The homogenate was then centrifuged for 10 min at 1000×g and the supernatant was stored at −80° C. until subsequent use (see below). The protein content was determined by the Bradford method (BioRad, Munich) using BSA as the standard.
PDE4B2 activity is inhibited by the said compounds in a modified SPA (scintillation proximity assay) test, supplied by Amersham Biosciences (see procedural instructions “phosphodiesterase [3H]cAMP SPA enzyme assay, code TRKQ 7090”), carried out in 96-well microtitre plates (MTP's). The test volume is 100 μl and contains 20 mM Tris buffer (pH 7.4), 0.1 mg of BSA (bovine serum albumin)/ml, 5 mM Mg^2+, 0.5 μM cAMP (including about 50,000 cpm of [3H]cAMP), 1 μl of the respective substance dilution in DMSO and sufficient recombinant PDE (1000×g supernatant, see above) to ensure that 10-20% of the cAMP is converted under the said experimental conditions. […] After a preincubation of 5 min at 37° C., the reaction is started by adding the substrate (cAMP) and the assay is incubated for a further 15 min; after that, it is stopped by adding SPA beads (50 μl). In accordance with the manufacturer's instructions, the SPA beads had previously been resuspended in water, but were then diluted 1:3 (v/v) in water; the diluted solution also contains 3 mM IBMX to ensure a complete PDE activity stop. After the beads have been sedimented (>30 min), the MTP's are analyzed in commercially available […]. The corresponding IC50 values of the compounds for the inhibition of PDE activity are determined from the concentration-effect curves by means of non-linear regression.

IC50, 0.955 to 8.71 nM:
COc1cc2c(cc1OC)[C@H]1C[C@H](O)CC[C@H]1N=C2c1ccc(C(=O)N2CCN(CCN3CCOCC3)CC2)cc1 (racemic) [Compound 9, 1-[4-((2RS,4aRS,10bRS)-2-Hydroxy-8,9-dimethoxy-1,2,3,4,4a,10b-hexahydro-phenanthridin-6-yl)-phenyl]-1-[4-(2-morpholin-4-yl-ethyl)-piperazin-1-yl]methanone]
COc1cc2c(cc1OC)[C@H]1C[C@H](O)CC[C@H]1N=C2c1ccc(C(=O)N2CCN(CC(=O)N3CCOCC3)CC2)cc1 (racemic) [Compound 17, 2-(4-{1-[4-((2RS,4aRS,10bRS)-2-Hydroxy-8,9-dimethoxy-1,2,3,4,4a,10b-hexahydro-phenanthridin-6-yl)-phenyl]-methanoyl}-piperazin-1-yl)-1-morpholin-4-yl-ethanone]
COc1cc2c(cc1OC)C1CC(O)CCC1N=C2c1ccc(C(=O)NCCCN2CCOCC2)cc1 (stereo not shown) [Compound 2]
COC(=O)CN(C)C(=O)c1ccc(C2=NC3CCC(O)CC3c3cc(OC)c(OC)cc32)cc1 (stereo not shown) [Compound 5]
COc1ccc(NC(=O)c2ccc(C3=N[C@@H]4CC[C@@H](O)C[C@@H]4c4cc(OC)c(OC)cc43)cc2)c(OC)n1 (racemic) [Compound 23, N-(2,6-Dimethoxy-pyridin-3-yl)-4-((2RS,4aRS,10bRS)-2-hydroxy-8,9-dimethoxy-1,2,3,4,4a,10b-hexahydro-phenanthridin-6-yl)benzamide]
COc1cc2c(cc1OC)C1CC(O)CCC1N=C2c1ccc(C(=O)N2CCN(c3ccncc3)CC2)cc1 (stereo not shown) [Compound 18]
COc1cc2c(cc1OC)[C@H]1C[C@H](O)CC[C@H]1N=C2c1ccc(C(=O)NCCc2ccncc2)cc1 (racemic) [Compound 20, 4-((2RS,4aRS,10bRS)-2-Hydroxy-8,9-dimethoxy-1,2,3,4,4a,10b-hexahydro-phenanthridin-6-yl)-N-(2-pyridin-4-yl-ethyl)-benzamide]
COc1cc2c(cc1OC)[C@H]1C[C@H](O)CC[C@H]1N=C2c1ccc(C(=O)N(C)C)cc1 (racemic) [Compound 14, 4-((2RS,4aRS,10bRS)-2-Hydroxy-8,9-dimethoxy-1,2,3,4,4a,10b-hexahydro-phenanthridin-6-yl)-N,N-dimethyl-benzamide]
COc1cc2c(cc1OC)[C@H]1C[C@H](O)CC[C@H]1N=C2c1ccc(C(=O)NCCc2cccnc2)cc1 (racemic) [Compound 21, 4-((2RS,4aRS,10bRS)-2-Hydroxy-8,9-dimethoxy-1,2,3,4,4a,10b-hexahydro-phenanthridin-6-yl)-N-(2-pyridin-3-yl-ethyl)-benzamide]
COc1cc2c(cc1OC)[C@H]1C[C@H](O)CC[C@H]1N=C2c1ccc(C(=O)N2CCOCC2)cc1 (racemic) [Compound 19, 1-[4-((2RS,4aRS,10bRS)-2-Hydroxy-8,9-dimethoxy-1,2,3,4,4a,10b-hexahydro-phenanthridin-6-yl)-phenyl]-1-morpholin-4-yl-methanone]
COc1cc2c(cc1OC)C1CC(O)CCC1N=C2c1ccc(C(=O)N2CCN(CC(=O)N(C)C)CC2)cc1 [Compound 16, 2-(4-{1-[4-((2R,4aR,10bR)-2-Hydroxy-8,9-dimethoxy-1,2,3,4,4a,10b-hexahydro-phenanthridin-6-yiyphenyl]-methanoyl}-piperazin-1-yl)-N,N-dimethyl-acetamide]
COc1cc2c(cc1OC)[C@H]1C[C@H](O)CC[C@H]1N=C2c1ccc(C(=O)NCCc2ccccn2)cc1 (racemic) [Compound 7, 4-((2RS,4aRS,10bRS)-2-Hydroxy-8,9-dimethoxy-1,2,3,4,4a,10b-hexahydro-phenanthridin-6-yl)-N-(2-pyridin-2-yl-ethyl)-benzamide]
COc1cc2c(cc1OC)[C@H]1C[C@H](O)CC[C@H]1N=C2c1ccc(C(=O)NN2CCN(C)CC2)cc1 (racemic) [Compound 3, 4-((2RS,4aRS,10bRS)-2-Hydroxy-8,9-dimethoxy-1,2,3,4,4a,10b-hexahydro-phenanthridin-6-yl)-N-(4-methyl-piperazin-1-yl)benzamide]
COc1cc2c(cc1OC(F)F)C1CC(O)CCC1N=C2c1ccc(C(=O)N2CCN(CC(=O)N3CCOCC3)CC2)cc1 (stereo not drawn) [Compound 32, 2-[4-(1-{4-[(2RS,4aRS,10bRS)-9-(1,1-Difluoro-methoxy)-2-hydroxy-8-methoxy-1,2,3,4,4a,10bhexahydro-phenanthridin-6-yl]-phenyl}-methanoyl)-piperazin-1-yl]-1-morpholin-4-yl-ethanone]
COc1cc2c(cc1OC(F)F)[C@H]1C[C@H](O)CC[C@H]1N=C2c1ccc(C(=O)N2CCCC2)cc1 (racemic) [Compound 33, 1-{4-[(2RS,4aRS,10bRS)-9-(1,1-Difluoro-methoxy)-2-hydroxy-8-methoxy-1,2,3,4,4a,10b-hexahydro-phenanthridin-6-yl]-phenyl}-1-pyrrolidin-1-yl-methanone]
COc1cc2c(cc1OC(F)F)[C@H]1C[C@H](O)CC[C@H]1N=C2c1ccc(C(=O)N2CCN(CC(=O)Nc3ccccn3)CC2)cc1 (racemic) [Compound 31, 2-[4(1-{4-[(2RS,4aRS,10bRS)-9-(1,1-Difluoro-methoxy)-2-hydroxy-8-methoxy-1,2,3,4,4a,10b-hexahydro-phenanthridin-6-yl]-phenyl}-methanoyl)-piperazin-1-yl]-N-pyridin-2-yl-acetamide]
COc1cc2c(cc1OC(F)F)[C@H]1C[C@H](O)CC[C@H]1N=C2c1ccc(C(=O)N2CCN(CCN(C)C)CC2)cc1 (racemic) [Compound 35, 1-{4-[(2RS,4aRS,10bRS)-9-(1,1-Difluoro-methoxy)-2-hydroxy-8-methoxy-1,2,3,4,4a,10b-hexahydro-phenanthridin-6-yl]-phenyl}-1-[4-(2-dimethylamino-ethyl)-piperazin-1-yl]-methanone]
COc1cc2c(cc1OC(F)F)[C@H]1C[C@H](O)CC[C@H]1N=C2c1ccc(C(=O)NCCN2CCOCC2)cc1 (racemic) [Compound 27, 4-[(2RS,4aRS,10bRS)-9-(1,1-Difluoro-methoxy)-2-hydroxy-8-methoxy-1,2,3,4,4a,10b-hexahydro-phenanthridin-6-yl]-N-(2-morpholin-4-yl-ethyl)-benzamide]
COc1cc2c(cc1OC)C1CC(O)CCC1N=C2c1ccc(C(=O)N2CCN(c3ccccn3)CC2)cc1 (stereo not shown) [Compound 8]
COc1cc2c(cc1OC(F)F)[C@H]1C[C@H](O)CC[C@H]1N=C2c1ccc(C(=O)NCCCN2CCOCC2)cc1 (racemic) [Compound 28, 4-[(2RS,4aRS,10bRS)-9-(1,1-Difluoro-methoxy)-2-hydroxy-8-methoxy-1,2,3,4,4a,10b-hexahydro-phenanthridin-6-yl]-N-(3-morpholin-4-yl-propyl)-benzamide]
COc1cc2c(cc1OC)[C@H]1C[C@H](O)CC[C@H]1N=C2c1ccc(C(=O)NNC(=O)N2CCOCC2)cc1 (racemic) [Compound 22, 4-((2RS,4aRS,10bRS)-2-Hydroxy-8,9-dimethoxy-1,2,3,4,4a,10b-hexahydro-phenanthridin-6-yl)benzoic acid N′-(1-morpholin-4-yl-methanoyl)-hydrazide]
COc1cc2c(cc1OC)[C@H]1C[C@H](O)CC[C@H]1N=C2c1ccc(C(=O)NC2CC2)cc1 (racemic) [Compound 11, N-Cyclopropyl-4-((2RS,4aRS,10bRS)-2-hydroxy-8,9-dimethoxy-1,2,3,4,4a,10b-hexahydro-phenanthridin-6-yl)-benzamide]
